# Source: PMC3293798, “Amino Acid Residues Contributing to Function of the Heteromeric Insect Olfactory Receptor Complex” (PLoS ONE, 2012)
# Positions count from the first letter of the chain named.
# How the values were obtained:
# Type in all cases: cell-based
# BmOr-1-BmOrco [1] = molecular target: T1, BmOr-1-BmOrco (Bombyx mori, UniProt Q5WA61); experiment: two-electrode voltage clamp, Xenopus oocytes, dose-response
# T1 construct: full-length cRNAs from modified pSPUTK vector, co-injected (25 ng each) in Xenopus laevis oocytes; heteromer of unknown stoichiometry; with Odorant receptor coreceptor
# T1 sequence (Q5WA61 1-430): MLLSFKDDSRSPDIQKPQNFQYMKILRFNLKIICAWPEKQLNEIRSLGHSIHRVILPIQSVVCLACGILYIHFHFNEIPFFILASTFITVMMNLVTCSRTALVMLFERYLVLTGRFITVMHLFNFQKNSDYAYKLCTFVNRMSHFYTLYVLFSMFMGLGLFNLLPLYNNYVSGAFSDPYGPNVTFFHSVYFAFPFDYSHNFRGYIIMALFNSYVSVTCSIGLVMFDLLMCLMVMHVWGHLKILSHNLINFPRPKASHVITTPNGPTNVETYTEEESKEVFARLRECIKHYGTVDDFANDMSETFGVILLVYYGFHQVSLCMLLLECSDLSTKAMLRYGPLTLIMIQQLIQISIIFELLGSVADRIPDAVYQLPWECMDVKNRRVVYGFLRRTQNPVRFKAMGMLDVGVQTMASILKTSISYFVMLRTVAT
# T1 sequence (Q7YT34 1-472 partner): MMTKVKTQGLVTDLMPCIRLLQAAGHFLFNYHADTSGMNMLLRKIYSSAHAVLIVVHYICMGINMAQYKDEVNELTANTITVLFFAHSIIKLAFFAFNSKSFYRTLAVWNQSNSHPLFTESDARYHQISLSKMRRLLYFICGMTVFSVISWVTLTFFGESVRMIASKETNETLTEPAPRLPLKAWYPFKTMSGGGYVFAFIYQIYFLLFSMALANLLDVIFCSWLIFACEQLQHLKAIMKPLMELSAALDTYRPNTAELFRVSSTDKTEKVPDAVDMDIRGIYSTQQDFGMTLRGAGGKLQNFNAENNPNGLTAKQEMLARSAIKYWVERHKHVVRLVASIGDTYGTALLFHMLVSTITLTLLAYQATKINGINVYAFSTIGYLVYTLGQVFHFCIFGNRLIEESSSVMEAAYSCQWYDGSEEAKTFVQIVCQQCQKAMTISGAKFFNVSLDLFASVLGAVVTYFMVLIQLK
# BmOr-1-BmOrco [2] = molecular target: T2, BmOr-1-BmOrco (Bombyx mori, UniProt Q5WA61, E356C); experiment: as above
# T2 construct: full-length cRNAs from modified pSPUTK vector, co-injected (25 ng each) in Xenopus laevis oocytes; heteromer of unknown stoichiometry; with Odorant receptor coreceptor
# T2 sequence (Q5WA61 1-430 E356C): T1 sequence (Q5WA61 1-430) with E356C
# T2 sequence (Q7YT34 1-472 partner): T1 sequence (Q7YT34 1-472 partner)
# BmOr-1-BmOrco [3] = molecular target: T1, BmOr-1-BmOrco; experiment: two-electrode voltage clamp, Xenopus oocytes, bombykol response after MTSET; settings: covalent; Cys modification of native Cys suggested; 60 s pretreatment; bombykol 1 µM
# [4] = molecular target: T3, Or22a with Drosophila Orco (Drosophila melanogaster, UniProt P81909); experiment: two-electrode voltage clamp, Xenopus oocytes, current-voltage curves; settings: agonist; 1 mM odorant
# T3 construct: full-length cRNAs co-injected in Xenopus laevis oocytes; heteromer of unknown stoichiometry; with Odorant receptor coreceptor
# T3 sequence (P81909 1-397): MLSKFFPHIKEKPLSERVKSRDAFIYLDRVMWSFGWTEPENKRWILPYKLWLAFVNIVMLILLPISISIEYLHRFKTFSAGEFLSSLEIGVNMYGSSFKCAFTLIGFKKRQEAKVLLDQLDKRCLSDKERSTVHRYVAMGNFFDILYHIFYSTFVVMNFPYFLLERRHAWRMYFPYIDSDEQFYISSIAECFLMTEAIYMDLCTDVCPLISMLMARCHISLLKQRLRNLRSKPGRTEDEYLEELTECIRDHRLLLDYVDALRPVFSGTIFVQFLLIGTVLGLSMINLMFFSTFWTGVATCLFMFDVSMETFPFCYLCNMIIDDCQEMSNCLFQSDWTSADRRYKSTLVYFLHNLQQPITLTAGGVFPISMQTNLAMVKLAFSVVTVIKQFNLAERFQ
# T3 sequence (Q9VNB5 1-486 partner): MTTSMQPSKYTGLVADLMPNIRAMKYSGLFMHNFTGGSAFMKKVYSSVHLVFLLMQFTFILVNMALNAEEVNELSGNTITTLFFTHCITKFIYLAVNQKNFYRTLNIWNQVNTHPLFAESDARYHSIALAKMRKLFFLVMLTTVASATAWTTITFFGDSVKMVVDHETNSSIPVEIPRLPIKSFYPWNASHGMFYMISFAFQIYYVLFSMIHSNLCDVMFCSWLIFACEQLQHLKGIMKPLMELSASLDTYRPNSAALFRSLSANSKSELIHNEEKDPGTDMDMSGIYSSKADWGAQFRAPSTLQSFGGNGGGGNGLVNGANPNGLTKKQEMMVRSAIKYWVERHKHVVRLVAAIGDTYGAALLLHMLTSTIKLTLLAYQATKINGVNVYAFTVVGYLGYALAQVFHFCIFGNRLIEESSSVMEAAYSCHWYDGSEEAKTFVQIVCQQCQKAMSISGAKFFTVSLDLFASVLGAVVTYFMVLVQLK
# [5] = molecular target: T4, Or47a with Drosophila Orco (Drosophila melanogaster, UniProt P81921); experiment: as above; settings: agonist; 1 mM odorant
# T4 construct: full-length cRNAs co-injected in Xenopus laevis oocytes; heteromer of unknown stoichiometry; with Odorant receptor coreceptor
# T4 sequence (P81921 1-385): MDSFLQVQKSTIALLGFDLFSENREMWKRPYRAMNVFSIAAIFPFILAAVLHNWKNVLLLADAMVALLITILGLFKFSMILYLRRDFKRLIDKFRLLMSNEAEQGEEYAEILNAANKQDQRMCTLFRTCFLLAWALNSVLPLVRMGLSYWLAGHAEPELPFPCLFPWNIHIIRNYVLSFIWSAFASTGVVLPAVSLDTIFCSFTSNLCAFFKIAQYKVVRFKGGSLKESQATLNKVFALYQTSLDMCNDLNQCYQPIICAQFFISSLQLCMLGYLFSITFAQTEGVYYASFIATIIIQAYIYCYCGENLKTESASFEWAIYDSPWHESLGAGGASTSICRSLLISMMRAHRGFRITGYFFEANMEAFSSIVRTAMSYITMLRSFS
# T4 sequence (Q9VNB5 1-486 partner): T3 sequence (Q9VNB5 1-486 partner)
structure (smiles),measurement,setting,value
CCC/C=C\C=C\CCCCCCCCCO [Bombykol],EC50,BmOr-1-BmOrco [1],190 nM
same,EC50,BmOr-1-BmOrco [2],300 nM
C[N+](C)(C)CCSS(C)(=O)=O [MTSET],% reduction of bombykol response at 2.5 mM,BmOr-1-BmOrco [3],46%
CCCC(=O)OCC [ethyl butyrate],"two-electrode voltage clamp, Xenopus oocytes, current-voltage curves",[4],"channels gated by their cognate ligands (ethyl butyrate, pentyl acetate"
CCCCCOC(C)=O [pentyl acetate],"two-electrode voltage clamp, Xenopus oocytes, current-voltage curves",[5],"channels gated by their cognate ligands (ethyl butyrate, pentyl acetate"
